Results published in US20240108009A1, “1-AMINO-1-CYCLOPROPANECARBOXYLIC ACID AND JASMONIC ACID MIXTURES AND USES THEREOF” (Valent BioSciences LLC, priority 2022, published 2024).

How the values were obtained:
Format in all cases: in vivo
[1] = system: Gala apples; assay: Apple coloration in Gala variety, study repeated with Retain added (Example 2, Table 3); conditions: 300 ppm, 34 hours post spray; for Average % Red Pixel Area: Retain added to the application; for Fold Change From control: Retain added
Procedure: (§1) To determine if the mixture provided unexpected results, the observed combined efficacy (“OCE”) was divided by the expected combined efficacy (“ECE”) wherein the ECE is calculated by the Abbott method: […]
(§2) wherein ECE is the expected combined efficacy and in which A and B are the fold change from control given by the single active ingredients. If the ratio between the OCE of the mixture and the ECE of the mixture is greater than 1, then greater than expected interactions are present in the mixture. (Gisi, Synergistic Interaction of Fungicides in Mixtures, The American Phytopathological Society, 86:11, 1273-1279, 1996).
(§3) 10 sets of unripened apples, Gala variety, harvested three weeks before the normal harvest date, were each foliar sprayed with either 1) 0.05% Regulaid® as a control, 2) 300 ppm jasmonic acid, 3) 300 ppm ACC or 4) a mixture of 300 ppm jasmonic acid and 300 ppm ACC. 34 hours post spray application percent red pixel area (shaded) was measured. Additionally, this study was repeated while adding [S]-trans-2-Amino-4-(2-aminoethoxy)-3-butenoic acid hydrochloride (Retain®, Retain is a registered trademark of Valent BioSciences LLC) to the application.

[2] = system: Imperial Gala apples; assay: Apple coloration in Imperial Gala variety (Example 3); conditions: 34 hours post spray
Procedure: as §1, §2
10 sets of unripened apples, Imperial Gala variety, harvested three weeks before the normal harvest date, were each foliar sprayed with either 1) 0.05% Regulaid® as a control, 2) 50 ppm jasmonic acid, 3) 300 ppm jasmonic acid, 4) 50 ppm ACC, 5) 300 ppm ACC, 6) a mixture of 50 ppm jasmonic acid and 50 ppm ACC or 7) a mixture of 300 ppm jasmonic acid and 300 ppm ACC. 34 hours post spray application percent red pixel area (shaded) was measured.

[3] = system: Red Aztec Fuji apples; assay: Apple coloration in Red Aztec Fuji variety (Example 7); conditions: 34 hours post spray
Procedure: as §1, §2
(§4) 10 sets of unripened apples, Red Aztec Fuji variety, harvested three weeks before the normal harvest date, were each foliar sprayed with either 1) 0.05% Regulaid® as a control, 2) 50 ppm jasmonic acid, 3) 300 ppm jasmonic acid, 4) 50 ppm ACC, 5) 300 ppm ACC, 6) a mixture of 50 ppm jasmonic acid and 50 ppm ACC, 7) a mixture of 50 ppm jasmonic acid and 300 ppm ACC, 8) a mixture of 300 ppm jasmonic acid and 50 ppm ACC or 9) a mixture of 300 ppm jasmonic acid and 300 ppm ACC. 34 hours post spray application percent red pixel area (shaded) was measured.

[4] = system: Honeycrisp apples; assay: Apple coloration in Honeycrisp variety (Example 5); conditions: 34 hours post spray
Procedure: as §1, §2
as §4, with “Honeycrisp” for “Red Aztec Fuji”

[5] = system: Gala apples; assay: Apple coloration in Gala variety (Example 2, Table 2); conditions: 34 hours post spray; for Average % Red Pixel Area: 300 ppm foliar spray; for Fold Change From control: 300 ppm
Procedure: as §1, §2, §3

[6] = system: Honeycrisp apples; assay: Apple coloration in Honeycrisp variety (Example 1), percent red pixel area; conditions: 43 hours post spray; for Average % Red Pixel Area: 50 ppm foliar spray; for Fold Change From control: 50 ppm
Procedure: 10 sets of unripened green apples, Honeycrisp variety, harvested three weeks before the normal harvest date, were each foliar sprayed with either 1) 0.05% of a mixture of polyoxyethylene-polyoxypropylene polymer, propylene glycol, 2-butoxyethanol (Regulaid®, Regulaid is a registered trademark of Kalo, Inc.) as a control, 2) 50 parts per million (“ppm”) jasmonic acid, 3) 50 ppm ACC or 4) a mixture of 50 ppm jasmonic acid and 50 ppm ACC. 43 hours post spray application percent red pixel area (shaded) was measured. Percent red pixel area is an indication of the coloration of the apple fruit.
as §1, §2

[7] = system: Pink Lady apples; assay: Apple coloration in Pink Lady variety, 100 ppm (Example 13); conditions: 34 hours post spray
Procedure: as §1, §2
10 sets of unripened apples, Pink Lady variety, harvested three weeks before the normal harvest date, were each foliar sprayed with either 1) 0.05% Regulaid® as a control, 2) 100 ppm jasmonic acid, 3) 100 ppm ACC and 4) a mixture of 100 ppm jasmonic acid and 100 ppm ACC. 34 hours post spray application percent red pixel area (shaded) was measured. The OCE/ECE ratio formula was modified to ECE=A+B−(A*B) to account for reduced average % red pixel area over control for each of the ACC applications.

[8] = system: Fuji apples; assay: Apple coloration in Fuji variety (Example 6); conditions: 34 hours post spray
Procedure: as §1, §2
as §4, with “apples,” for “apples, Red Aztec”

[9] = system: Ultima Gala apples; assay: Apple coloration in Ultima Gala variety (Example 4); conditions: 34 hours post spray
[10] = system: Cripps Pink apples; assay: Apple coloration in Cripps Pink variety, repeat (Example 11); conditions: Cripps Pink (Example 11, repeat), 34 hours post spray
Procedure: as §1, §2
(§5) The experiment detailed in Example 10 was repeated. Specifically, 10 sets of unripened apples, Cripps Pink variety, harvested three weeks before the normal harvest date, were each foliar sprayed with either 1) 0.05% Regulaid® as a control, 2) 50 ppm jasmonic acid, 3) 300 ppm jasmonic acid, 4) 50 ppm ACC, 5) 300 ppm ACC, 6) a mixture of 50 ppm jasmonic acid and 50 ppm ACC, 7) a mixture of 50 ppm jasmonic acid and 300 ppm ACC, 8) a mixture of 300 ppm jasmonic acid and 50 ppm ACC or 9) a mixture of 300 ppm jasmonic acid and 300 ppm ACC. 34 hours post spray application percent red pixel area (shaded) was measured. The OCE/ECE ratio formula was modified to ECE=A+B−(A*B) to account for reduced average % red pixel area over control for each of the ACC applications.

[11] = system: Evercrisp apples; assay: Apple coloration in Evercrisp variety (Example 9); conditions: 34 hours post spray
[12] = system: Cripps Pink apples; assay: Apple coloration in Cripps Pink variety (Example 10); conditions: Cripps Pink (Example 10), 34 hours post spray
Procedure: as §1, §2
as §4, with “Cripps Pink” for “Red Aztec Fuji”

[13] = system: Aztec Fuji apples; assay: Apple coloration in Aztec Fuji variety (Example 8); conditions: 34 hours post spray
Procedure: as §1, §2
as §4, with “apples,” for “apples, Red”

[14] = system: Pink Lady apples; assay: Apple coloration in Pink Lady variety (Example 12); conditions: 34 hours post spray
Procedure: as §1, §2
as §5, with “10” for “The experiment detailed in Example 10 was repeated. Specifically, 10”, “apples,” for “apples, Cripps”, “Pink Lady” for “Pink”

CC/C=C\C[C@H]1C(=O)CC[C@@H]1CC(=O)O [jasmonic acid]
Average % Red Pixel Area [1]: 24.85% | Fold Change From control [1]: 5.41 | Average % Red Pixel Area ([2]; 50 ppm): 30.90% | Fold Change From control ([2]; 50 ppm): 3.54 | Average % Red Pixel Area ([2]; 300 ppm): 45.18% | Fold Change From control ([2]; 300 ppm): 5.65 | Average % Red Pixel Area ([3]; 50 ppm): 22.53% | Fold Change From control ([3]; 50 ppm): 0.26 | Average % Red Pixel Area ([3]; 300 ppm): 75.2% | Fold Change From control ([3]; 300 ppm): 3.21 | Average % Red Pixel Area ([4]; 50 ppm): 5.00% | Fold Change From control ([4]; 50 ppm): −0.46 | Average % Red Pixel Area ([4]; 300 ppm): 31.37% | Fold Change From control ([4]; 300 ppm): 2.42 | Average % Red Pixel Area [5]: 61.5% | Fold Change From control [5]: 15.53 | Average % Red Pixel Area [6]: 38.66% | Fold Change From control [6]: 9.64 | Average % Red Pixel Area [7]: 49.9% | Fold Change From control [7]: 2.06 | Average % Red Pixel Area ([8]; 50 ppm): 24.55% | Fold Change From control ([8]; 50 ppm): 0.21 | Average % Red Pixel Area ([8]; 300 ppm): 60.29% | Fold Change From control ([8]; 300 ppm): 1.98 | Average % Red Pixel Area ([9]; 50 ppm): 43.46% | Fold Change From control ([9]; 50 ppm): 2.91 | Average % Red Pixel Area ([9]; 300 ppm): 63.02% | Fold Change From control ([9]; 300 ppm): 4.67 | Average % Red Pixel Area ([10]; 50 ppm): 63.91% | Fold Change From control ([10]; 50 ppm): 1.30 | Average % Red Pixel Area ([10]; 300 ppm): 85.52% | Fold Change From control ([10]; 300 ppm): 1.74 | Average % Red Pixel Area ([11]; 50 ppm): 40.67% | Fold Change From control ([11]; 50 ppm): 1.15 | Average % Red Pixel Area ([11]; 300 ppm): 70.81% | Fold Change From control ([11]; 300 ppm): 2.75 | Average % Red Pixel Area ([12]; 50 ppm): 30.79% | Fold Change From control ([12]; 50 ppm): 3.80 | Average % Red Pixel Area ([12]; 300 ppm): 79.81% | Fold Change From control ([12]; 300 ppm): 9.84 | Average % Red Pixel Area ([13]; 50 ppm): 38.27% | Fold Change From control ([13]; 50 ppm): 0.20 | Average % Red Pixel Area ([13]; 300 ppm): 71.99% | Fold Change From control ([13]; 300 ppm): 1.25 | Average % Red Pixel Area ([14]; 50 ppm): 68.55% | Fold Change From control ([14]; 50 ppm): 1.91 | Average % Red Pixel Area ([14]; 300 ppm): 76.7% | Fold Change From control ([14]; 300 ppm): 2.13

NC1(C(=O)O)CC1 [ACC, 1-amino-1-cyclopropanecarboxylic acid]
Average % Red Pixel Area [1]: 4.71% | Fold Change From control [1]: 1.03 | Average % Red Pixel Area ([2]; 50 ppm): 7.02% | Fold Change From control ([2]; 50 ppm): 0.03 | Average % Red Pixel Area ([2]; 300 ppm): 4.66% | Fold Change From control ([2]; 300 ppm): −0.31 | Average % Red Pixel Area ([3]; 50 ppm): 17.08% | Fold Change From control ([3]; 50 ppm): −0.04 | Average % Red Pixel Area ([3]; 300 ppm): 15.84% | Fold Change From control ([3]; 300 ppm): −0.11 | Average % Red Pixel Area ([4]; 50 ppm): 4.70% | Fold Change From control ([4]; 50 ppm): −0.49 | Average % Red Pixel Area ([4]; 300 ppm): 3.80% | Fold Change From control ([4]; 300 ppm): 0.59 | Average % Red Pixel Area [5]: 3.63% | Fold Change From control [5]: 0.92 | Average % Red Pixel Area [6]: 4.74% | Fold Change From control [6]: 1.18 | Average % Red Pixel Area [7]: 19.32% | Fold Change From control [7]: 0.80 | Average % Red Pixel Area ([8]; 50 ppm): 20.61% | Fold Change From control ([8]; 50 ppm): 0.02 | Average % Red Pixel Area ([8]; 300 ppm): 25.47% | Fold Change From control ([8]; 300 ppm): 0.26 | Average % Red Pixel Area ([9]; 50 ppm): 10.44% | Fold Change From control ([9]; 50 ppm): −0.06 | Average % Red Pixel Area ([9]; 300 ppm): 14.87% | Fold Change From control ([9]; 300 ppm): 0.34 | Average % Red Pixel Area ([10]; 50 ppm): 34.68% | Fold Change From control ([10]; 50 ppm): 0.70 | Average % Red Pixel Area ([10]; 300 ppm): 48.78% | Fold Change From control ([10]; 300 ppm): 0.99 | Average % Red Pixel Area ([11]; 50 ppm): 46.78% | Fold Change From control ([11]; 50 ppm): 1.48 | Average % Red Pixel Area ([11]; 300 ppm): 72.16% | Fold Change From control ([11]; 300 ppm): 2.82 | Average % Red Pixel Area ([12]; 50 ppm): 54.12% | Fold Change From control ([12]; 50 ppm): 6.67 | Average % Red Pixel Area ([12]; 300 ppm): 57.97% | Fold Change From control ([12]; 300 ppm): 7.15 | Average % Red Pixel Area ([13]; 50 ppm): 35.07% | Fold Change From control ([13]; 50 ppm): 0.10 | Average % Red Pixel Area ([13]; 300 ppm): 29.25% | Fold Change From control ([13]; 300 ppm): −0.09 | Average % Red Pixel Area ([14]; 50 ppm): 24.63% | Fold Change From control ([14]; 50 ppm): 0.68 | Average % Red Pixel Area ([14]; 300 ppm): 28.83% | Fold Change From control ([14]; 300 ppm): 0.80
